Reference: patent US20250064707A1, “PEPTIDE HAVING ANTI-AGING ACTIVITY, AND USE THEREOF” (CAREGEN CO., LTD., priority 2021, published 2025)

How the values were obtained:
[1] = tested on: NIH3T3 cells (mouse fibroblast cell line); experiment: RT-PCR expression of ECM component genes (Col1a1, fibronectin, elastin) in fibroblasts; type: cell-based; settings: peptide 10, 50, 100 μM, 24 hours, RT-PCR vs GAPDH
Protocol: First, NIH3T3 cells (mouse fibroblast cell line) were seeded in a 6-well plate at a cell density of 5×10^5 cell/well, and then the cells were cultured in DMEM medium containing 10% fetal bovine serum (FBS) for 24 hours. The cultured cells were washed once with serum free DMEM medium, and the peptide of the present invention was mixed in 1 mL of the serum free DMEM medium at each of concentrations of 10, 50, and 100 μM, and dispensed into the cells. A positive control (PC) was treated with 100 nM of bFGF instead of the above peptide. The cells were cultured in a CO2 incubator at 37° C. for 24 hours.
The cultured cells were washed twice with PBS, and RNA was extracted from the cells using easy blue (iNtRON, Cat. No.: 17061, Korea). The extracted RNA was subjected to RT-PCR using an RNA kit (enzynomics, Cat. No.: P581T, Korea). The sequences of the primers of collagen (Col1a1), fibronectin, and elastin used in RT-PCR and the sequence of the primer of GAPDH used to compare the total RNA amount of each treatment group are shown in [Table 2].

HaCaT cells [2] = experiment: RT-PCR expression of skin barrier genes (SIRT1, AQP3) in keratinocytes; type: cell-based, human; settings: peptide 10, 50, 100 μM, 24 hours
Protocol: (§1) First, HaCaT cells were seeded in a 6-well plate at a cell density of 3×10^5 cell/well, and then the cells were cultured in DMEM medium containing 10% fetal bovine serum (FBS) for 24 hours. The cultured cells were washed once with serum free DMEM medium, and then the peptide of the present invention was mixed in 1 mL of the serum free DMEM medium at each of concentrations of 10, 50, and 100 μM, and dispensed into the cells. A positive control (PC) was treated with 100 nM of EGF instead of the above peptide. The cells were cultured in a CO2 incubator at 37° C. for 24 hours.
The cultured cells were washed twice with PBS, and then RNA was extracted from the cells using easy blue (iNtRON, Cat. No.: 17061, Korea). The extracted RNA was subjected to RT reaction using a kit (enzynomics, Cat. No.: RT200, Korea). Thereafter, RT-PCR was performed using a PCR kit (enzynomics, Cat. No.: R581T, Korea). The sequences of the primers of SIRT1 and AQP3 used in RT-PCR are shown in [Table 3]. The sequence of the primer of GAPDH used to compare the total RNA amount of each treatment group is shown in [Table 2].

HaCaT cells [3] = experiment: RT-PCR expression of SIRT1 and AQP3 decreased by UVB irradiation; type: cell-based, human; settings: peptide 10, 50, 100 μM, 15 J/cm^2 UVB, 24 hours
Protocol: The expression of genes related to the skin barrier strengthening function is inhibited when irradiated with UV.
(§2) First, HaCaT cells were seeded in a 6-well plate at a cell density of 3×10^5 cell/well, and then the cells were cultured in DMEM medium containing 10% fetal bovine serum (FBS) for 24 hours. The cultured cells were washed once with serum free DMEM medium, and then the peptide of the present invention was mixed in 1 mL of the serum free DMEM medium at each of concentrations of 10, 50, and 100 μM, and dispensed into the cells. A positive control (PC) was treated with 2.5 mM of N-acetylcysteine (NaC) instead of the above peptide. The cells were cultured in a CO2 incubator at 37° C. for 1 hour.
The cultured cells were washed twice with PBS, 1 ml of PBS was added, and irradiation was performed with 15 J/cm^2 of UVB using a UV irradiator (VILBER LOURMAT, Cat No.: 3102-BSU, France). After removing PBS, 900 μL of the medium transferred to the tube was dispensed, and culture was performed in a CO2 incubator at 37° C. for 24 hours. The cultured cells were washed twice with PBS, and then RNA was extracted from the cells using easy blue (iNtRON, Cat. No.: 17061, Korea). The extracted RNA was subjected to an RT reaction using an RNA kit (enzynomics, Cat. No.: P581T, Korea). Thereafter, RT-PCR was performed using a PCR kit (enzynomics, Cat. No.: R581T, Korea). […]

HaCaT cells [4] = experiment: Intracellular reactive oxygen species after UVB irradiation (DCFH-DA, FACS); type: cell-based, human; settings: peptide 10, 50, 100 μM, 1 hour before 15 J/cm^2 UVB, 24 hours after
Protocol: The reactive oxygen species level increases when UV is irradiated. Therefore, it was confirmed whether the reactive oxygen species level decreased again and the aging phenomenon caused by oxidative stress in cells was inhibited when treated with the peptide of the present invention.
as §1, with “5×10^5” for “3×10^5”, “25 μM” for “100 nM”, “Trolox” for “EGF”, “peptide.” for “peptide. The cells were cultured in a CO2 incubator at 37° C. for 24 hours.”
The cells were cultured in a CO2 incubator at 37° C. for 1 hour. The medium of the cultured cells was transferred to a tube, 1 ml of PBS was added, and irradiation was performed with 15 J/cm^2 of UVB using a UV irradiator (VILBER LOURMAT, Cat No.: 3102-BSU, France). After removing PBS, 900 μL of the medium transferred to the tube was dispensed, and culture was performed in a CO2 incubator at 37° C. for 24 hours. […] After centrifugation, the cells were washed with PBS, and a fluorescence value was measured through FACS.

NIH3T3 cells = experiment: Collagen ELISA and hyaluronic acid ELISA of culture medium, fibroblasts; type: cell-based, mouse; settings: peptide 50 μM, 100 μM, 72 hours
Protocol: (§3) First, NIH3T3 cells and HaCaT cells (human keratinocyte cell line) were seeded in a 24-well plate at a cell density of 1×10^4 cell/well, and then the cells were cultured in DMEM medium containing 10% fetal bovine serum (FBS) for 24 hours. The cultured cells were washed once with serum free DMEM medium, and the peptide of the present invention was mixed in 2 mL of the serum free DMEM medium at each of concentrations of 50 μM, 100 μM, and 5 ng/ml, and dispensed into three wells by 500 μL per condition. The NIH3T3 cells were treated with 5 ng/ml of TGF-β1 instead of the above peptide as a positive control (PC). The HaCaT cells were treated with 100 nM of IGF-1 instead of the above peptide as a PC. The cells were cultured in a CO2 incubator at 37° C. for 72 hours.
(§4) The medium of the cultured NIH3T3 and HaCaT cells was centrifuged to settle a suspended matter, a supernatant was transferred to an e-tube, and then each of ELISA (abcam, Cat No.: ab210579, UK) and hyaluronic acid (HA) ELISA (ECHELON biosciences, Cat No.: K-1200, USA) was performed using the same.

HaCaT cells [5] = experiment: Western blot of apoptotic-inducing factors (cleaved PARP-1, cleaved Caspase-3) increased by UVB irradiation; type: cell-based, human; settings: peptide 10, 50, 100 μM, 15 J/cm^2 UVB, 24 hours
Protocol: Expression of the apoptotic-inducing factors increases when irradiated with UV. Therefore, it was confirmed whether the photoaging phenomenon of the cells was inhibited and the damaged cells were regenerated by confirming whether the increased expression levels of the apoptotic-inducing factors such as cleaved PARP-1 and cleaved Caspase-3 decreased again when treated with the peptide of the present invention.
as §2, with “5×10^5” for “3×10^5”, “peptide.” for “peptide. The cells were cultured in a CO2 incubator at 37° C. for 1 hour.”
The cells were cultured in a CO2 incubator at 37° C. for 1 hour, the medium of the cultured cells was transferred to a tube, 1 mL of PBS was added, and then irradiation was performed with 15 J/cm^2 of UVB using a UV irradiator (VILBER LOURMAT, Cat No.: 3102-BSU, France). After removing PBS, 900 μL of the medium transferred to the tube was added again, and culture was performed in a CO2 incubator at 37° C. for 24 hours. […]

[6] = tested on: HaCaT cells (human keratinocyte cell line); experiment: Collagen ELISA and hyaluronic acid ELISA of culture medium, keratinocytes; type: cell-based; settings: peptide 50 μM, 100 μM, 72 hours
Protocol: as §3, §4

EYIPNRVCRR [SEQ ID NO: 1]
expression of the Col1a1 gene [1]: gradually increased as a concentration of the peptide increased | expression of the elastin gene [1]: gradually increased as a concentration of the peptide increased | expression of the fibronectin gene [1]: gradually increased as a concentration of the peptide increased | mRNA level of AQP3 (HaCaT cells [2]): increased | mRNA level of SIRT1 (HaCaT cells [2]): increased | mRNA level of AQP3 decreased by UV irradiation (HaCaT cells [3]): increased again | mRNA level of SIRT1 decreased by UV irradiation (HaCaT cells [3]): increased again | intracellular reactive oxygen species level increased by UV irradiation (HaCaT cells [4]): decreased | amount of collagen protein (NIH3T3 cells; ELISA of medium (FIG. 2A)): gradually increased as a concentration of the peptide increased | amount of hyaluronic acid (NIH3T3 cells; HA ELISA of medium (FIG. 2A)): gradually increased as a concentration of the peptide increased | expression of Cleaved Caspase-3 increased by UV irradiation (HaCaT cells [5]): inhibited the expression | expression of Cleaved PARP-1 increased by UV irradiation (HaCaT cells [5]): inhibited the expression | amount of collagen protein ([6]; ELISA of medium (FIG. 2B)): gradually increased as a concentration of the peptide increased | amount of hyaluronic acid ([6]; HA ELISA of medium (FIG. 2B)): gradually increased as a concentration of the peptide increased
